According to patent US20240415836A1, “COMPOSITION COMPRISING TWO ENZYME INHIBITORS TARGETING TWO DIFFERENT CONFORMATIONS OF AN ENZYME” (University College Dublin, priority 2018, published 2024):
Where two headings read alike, the source gives them in different places.

How the values were obtained:
[1] = tested on: DND41 (T-ALL leukaemia) cells; experiment: Proliferation of DND41 cells, 4 days; format: cell-based; details: doses exceeding 10 μM of each drug, alone and in combination
Experimental: Inventors' model predictions were corroborated by cell line experiments where proliferation responses of T-ALL cells (DND41) to Type I inhibitor Ruxolitinib, Type II inhibitor CHZ868, and their combination were measured (FIG. 17). […] However, the inventors observed saturation of inhibition of cellular proliferation. […] This incomplete inhibition of proliferation is explained by activation of STAT family of transcription factors by alternative signalling pathways.

RAF = details: literature values; cited from earlier work
[2] = tested on: HER2-positive breast cancer cells; experiment: HER2-positive breast cancer cells stimulated with Heregulin (HRG); format: cell-based
Experimental: Thus, in order to model conditions of resistance to ErbB inhibitors, all proliferation assays were performed in the presence of HRG.

[3] = tested on: ERK signaling, MEL-JUSO cells; experiment: ERK signaling in growing MEL-JUSO cells, Western Blot, 1 hr; format: cell-based; details: trametinib at doses that do not fully inhibit ERK activation
Experimental: Cells were transferred on ice, scraped using lysis buffer (10 mM Tris pH 7.5, 150 mM NaCl, and 0.5% (v/v) NP-40) complemented with protease and phosphatase inhibitors, and the cellular debris removed from the lysate by centrifugation at 10,000×g at 4° C. for 10 min. […] Lysates were then resolved by SDS PAGE (12%) and transferred on a polyvinylidene difluoride membrane (Millipore). Protein visualization was performed in combination with horseradish peroxidase-conjugated secondary antibodies (Cell Signalling Technologies) and the enhanced chemiluminescence system (GE Healthcare) using the Advanced Molecular Vision Chemi Image Unit associated with ChemoStar Imager (INTAS Science Imaging Instruments GmbH) for the following antibodies: Polyclonal rabbit anti-human mitogen-activated protein (MAP) kinase [extra-cellular signal-regulated kinase (ERK) 1 and ERK2] antibody (Sigma), monoclonal mouse anti-human MAP kinase activated (diphosphorylated ERK1 and ERK2) antibody (Sigma).

[4] = tested on: MEK signaling, A375 (WT RAS, BRAF^V600E/V600E) cells; experiment: cells; details: Homo sapiens, A-375, 1 h, read-out: IC50, MEK signaling response
Experimental: (§1) Cell lines were either purchased from ATCC (SKMEL2, A375) or DSMZ (MEL-JSUO). […] All cells were grown in RPMI (Gibco) supplemented with 2 mM L-glutamine and 10% (v/v) fetal bovine serum in a humidified atmosphere of 5% CO2 at 37° C. Cells were seeded in 12-well plates (Greiner CELLSTAR dishes) at the density of 10^5 cells per well. After reaching sufficient confluency, cells were treated with different concentrations of inhibitors and DMSO as control. To prepare the protein lysates, plates were transferred on ice, washed with ice-cold PBS and harvested by scraping in specific ELISA buffers as indicated below.
(§2) Briefly, following the addition of complete MSD lysis buffer and scraping the cells from the surface of the dish, the cellular debris was removed from the lysate by centrifugation at 10000×g at 4° C. for 10 min. Protein concentration was determined using the BCA test according to the manufacturer's instructions (Pierce™ BCA Protein Assay Kit).

[5] = tested on: ERK signaling, MEL-JUSO cells; experiment: ERK signaling (ppERK) in growing MEL-JUSO cells, LUMINEX xMAP, 24 hr; format: cell-based; details: extending into the micromolar range
Experimental: Following the addition of complete Luminex lysis buffer and scraping the cells from the surface of the dish, the cellular debris was removed from the lysate by centrifugation at 10000×g at 4° C. for 10 min. The pellet was discarded and the protein concentration of lysates was adjusted to 0.3 μg/μL using the BCA assay kit. xMAP assays were performed on a Luminex-3D platform (Luminex, Austin, TX) using commercially available phosphoprotein antibody-coupled beads (ProtATonce, Athens, Greece). […] Additionally, for loading control the levels of glyceraldehyde 3-phosphate dehydrogenase (GAPDH) protein were analyzed in a separate setting.

[6] = tested on: ERK signaling, MEL-JUSO cells; experiment: ERK signaling (ppERK) in growing MEL-JUSO cells, MESOSCALE system, 24 hr; format: cell-based; details: applied separately, high doses (12 μM), following paradoxical activation
Experimental: as §1, §2

MEL-JUSO cells = experiment: Cell proliferation assay (MTS) in MEL-JUSO cells; format: cell-based; details: Homo sapiens, read-out: GI50 (a dose inhibiting cell proliferation by 50%)
Experimental: Cell proliferation was analyzed by CellTiter 96 Aqueous One Solution Cell Proliferation Assay (MTS; Promega) according to manufacturer's instructions. For this, 5,000 cells were plated per well of 96-well tissue culture plates (in 200 μL of medium).

all RAF isoforms = details: literature (King 2006; Wan 2004; Wilhelm 2004); cited from earlier work

**Q.** Which “plateau level of suppression of cellular proliferation” value [1] does the source give for `CC(=O)Nc1cc(Oc2ccc3c(nc(Nc4ccc(F)cc4F)n3C)c2C)ccn1` [CHZ868] here?
**A.** ~60%

**Q.** Which 1/koff (RAF) does the source give for `COC(=O)N[C@@H](C)CNc1nccc(-c2cn(C(C)C)nc2-c2cc(Cl)cc(NS(C)(=O)=O)c2F)n1` [LGX818] here?
**A.** ≥ 2 h

**Q.** For `CS(=O)(=O)CCNCc1ccc(-c2ccc3ncnc(Nc4ccc(OCc5cccc(F)c5)c(Cl)c4)c3c2)o1` [Lapatinib], which “sensitivity of cells after stimulation with Heregulin (HRG)” value [2] is on record?
**A.** resistant to Lapatinib treatment

**Q.** Which “plateau level of suppression of cellular proliferation” value [1] does the source give for `N#CC[C@H](C1CCCC1)n1cc(-c2ncnc3[nH]ccc23)cn1` [Ruxolitinib] here?
**A.** ~60%

**Q.** For `CC(C)(C)c1nc(-c2cccc(NS(=O)(=O)c3c(F)cccc3F)c2F)c(-c2ccnc(N)n2)s1` [dabrafenib], which “effect on ERK signaling of addition to trametinib” value [3] is on record?
**A.** increases rather than decreases ERK signaling

**Q.** For `CNC(=O)c1cc(Oc2ccc(NC(=O)Nc3ccc(Cl)c(C(F)(F)F)c3)cc2)ccn1` [sorafenib], which IC50 [4] is on record?
**A.** 44 µM

**Q.** And the “ERK response to each inhibitor applied separately” value [5]?
**A.** marked paradoxical ERK activation

**Q.** And the ppERK response [6]?
**A.** could only slightly inhibit ppERK

**Q.** What about the GI50 (MEL-JUSO cells; MEL-JUSO) of the same compound?
**A.** 8 µM

**Q.** What about the “inhibition of RAF isoforms in in vitro kinase assays” value (all RAF isoforms) of the same compound?
**A.** low nM range

**Q.** For `CCCS(=O)(=O)Nc1ccc(F)c(C(=O)c2c[nH]c3ncc(-c4ccc(Cl)cc4)cc23)c1F` [vemurafenib], which GI50 (MEL-JUSO cells; MEL-JUSO cells, applied individually) is on record?
**A.** 32 µM
